Laboratory results taken from patent US20230285556A1, “METHODS AND COMPOSITIONS FOR TREATING CANCER” (Omeros Corporation, priority 2021, published 2023).

Key:
[1] = system: OT-I TCR transgenic CD8 T cells; assay: Example 6: OT-I CD8 T cell expansion with PKA and p38 inhibitors, IL-2 after restimulation with EG7 cells; assay type: cell-based, mouse; settings: 0.2 μM doramapimod, 500 μM Rp-8-Br-cAMPS
Experimental: (§1) and the following individual conditions: • 1. DMSO vehicle control • 2. 0.2 μM doramapimod • 3. 500 μM Rp-8-Br-cAMPS • 4. 0.2 μM doramapimod+500 μM Rp-8-Br-cAMPS
On day 8, cells were immunophenotyped with the following antibodies: anti-CD8 BV570, anti-CD62L eFluor450, anti-TCF1/TCF7 PE, anti-CD39 PerCP-eFluor710, anti-CD69 BV605, anti-PD-1 BV711, anti-CTLA-4 APC, and LIVE/DEAD™ Fixable Green Dead Cell Stain.
(§2) After overnight culture, supernatants were harvested and analyzed for IL-2 content (MesoScale Discovery).

[2] = system: OT-I TCR transgenic CD8 T cells; assay: Example 8: OT-I CD8 T cell 9-day expansion with PKA, p38, PI3Kδ inhibitors, IL-2 after restimulation with EG7 cells; assay type: cell-based, mouse
Experimental: DMSO vehicle control • 2. 0.5 μM doramapimod • 3. 500 μM Rp-8-Br-cAMPS • 4. 0.5 μM doramapimod+500 μM Rp-8-Br-cAMPS • 5. 1 μM idelalisib • 6. 1 μM idelalisib+0.5 μM doramapimod • 7. 1 μM idelalisib+500 μM Rp-8-Br-cAMPS • 8. 1 μM idelalisib+0.5 μM doramapimod+500 μM Rp-8-Br-cAMPS
On days 2, 4, 6, and 8, cells were counted, washed and reseeded at 0.5 million per well in 2 mL media with the same 8 conditions and with recombinant mouse IL-2 and IL-7 (5 ng/mL each). […] Cells were also washed three times (12 mL media each), and restimulated in quintuplicate in 96-well round-bottom plates with the following conditions: • 0.1 mL RP10 media • 0.05 million OT-I T cells from each condition • 0.05 million EG7 cells
as §2

human CD8 T cells [3] = assay: Example 4: human CD8 T cell expansion with GPR174, A2A, PKA or EPAC inhibitors, IL-2 after restimulation; assay type: cell-based; settings: for IL-2 production following restimulation, fold increase vs vehicle (FIG. 6): 300 nM Compound #10, 100 nM ZM-241385, 500 μM Rp-8-Br-cAMPS, 5 μM ESI-09, 5.5 hours restimulation
Experimental: Purified human CD8 T cells were cultured in 24-well plates with the following conditions per well: • 2 mL X-VIVO™ 15 media (Lonza) • 0.4 million human CD8 T cells (Donor A) • 2 million Human T-Activator CD3/CD28 Dynabeads® (ThermoFisher) • 10 ng/mL human IL-7 (R&D Systems) • 10 ng/mL human IL-15 (R&D Systems)
and the following individual conditions, ±300 nM Compound #10: • 1. DMSO vehicle control • 2. […] 500 μM Rp-8-Br-cAMPS • 4. 5 μM ESI-09
On days 3, 5, and 7, cultures were washed and seeded at 0.5 cells million per well with the same small molecule inhibitor conditions, and with IL-7 and IL-15.
After 5.5 hours of culture, supernatants were harvested and analyzed for IL-2 content (MesoScale Discovery).

human CD8 T cells [4] = assay: Example 5: T cell number increase during 10-day expansion; assay type: cell-based
Experimental: (§3) DMSO vehicle control • 2. […] 500 μM Rp-8-Br-cAMPS • 4. […] 0.5 μM doramapimod • 6. Media control
(§4) or the following individual conditions for the experiment shown in FIG. 8, each ±0.5 μM doramapimod: • 1. DMSO vehicle control • 2. 500 μM Rp-8-Br-cAMPS • 3. […] 5 μM ESI-09
(§5) On days 3, 5, and 7, cultures were washed and seeded at 0.5 cells million per well with the same small molecule inhibitor conditions, and with IL-7 and IL-15. On day 10, cells were washed twice (12 mL media each), and restimulated in quadruplicate in 96-well round-bottom plates with the following conditions: • 0.1 mL X-VIVO™ 15 media (Lonza) • 0.05 million cells from each condition • 0.1 million Human T-Activator CD3/CD28 Dynabeads® (ThermoFisher)

[5] = system: OT-I TCR transgenic CD8 T cells; assay: Example 6: immunophenotyping of OT-I T cells on day 8; assay type: cell-based, mouse; settings: 8 days of culture
Experimental: as §1
On days 2, 4, 6, and 8, cells were counted, washed, and reseeded at 0.5 million per well in 2 mL media with the same 4 doramapimod/Rp-8-Br-cAMPS conditions and with recombinant mouse IL-2 and IL-7 (5 ng/mL each). On day 8, cells were immunophenotyped with the following antibodies: anti-CD8 BV570, anti-CD62L eFluor450, anti-TCF1/TCF7 PE, anti-CD39 PerCP-eFluor710, anti-CD69 BV605, anti-PD-1 BV711, anti-CTLA-4 APC, and LIVE/DEAD™ Fixable Green Dead Cell Stain.

human CD8 T cells [6] = assay: Example 5: human CD8 T cell expansion with cAMP pathway and p38 inhibitors, IL-2 after restimulation; assay type: cell-based; settings: 500 μM Rp-8-Br-cAMPS, 0.5 μM doramapimod
Experimental: as §3, §4, §5, §2

EG7 tumors = assay: Example 7: adoptive transfer of inhibitor-precultured OT-1 T cells into EG7 tumor-bearing mice; assay type: in vivo, mouse
Experimental: as §1
On day 6 cells were seeded in 6-well plates with […] per well, and on day 8 cells were seeded in T75 flasks in 30 mL media to obtain enough cells to transfer into EG7 tumor-bearing mice.
C57BL/6 female mice were implanted with 6 million EG7 tumor cells subcutaneously on day 4 of the OT-1 T cell expansion. On day 6 of tumor growth (day 10 of OT-1 T cell expansion) OT-1 T cells were washed and injected retro-orbitally into tumor bearing mice that had been sorted into 4 groups with equal tumor volume distributions (n=8). Via retroorbital injection, mice received 2 million OT1 T cells of each of the 4 culture conditions. Tumor volume (mm^3) was calculated as 0.5×(length×width^2), where length represents the largest tumor diameter and width represents the perpendicular tumor diameter. Mice were euthanized when the sum of the two measurements exceeded 30 mm.

human CD8 T cells [7] = assay: Example 3: human CD8 T cell 10-day expansion with IL-7+IL-15 and inhibitors, IL-2 after restimulation; assay type: cell-based; settings: for IL-2 production following restimulation, fold vs vehicle control (FIG. 4): 300 nM Compound #10, 100 nM ZM-241385, 18 hours restimulation; for IL-2 production following restimulation, fold vs vehicle (FIG. 5): 300 nM Compound #10, 500 nM Compound #49, 100 nM ZM-241385, 18 hours restimulation
Experimental: Purified human CD8 T cells were cultured in 24-well plates with the following conditions per well: • 2 mL X-VIVO™ 15 media (Lonza) • 1 million human CD8 T cells • 2 million Human T-Activator CD3/CD28 Dynabeads® (ThermoFisher) • 10 ng/mL human IL-7 (R&D Systems) • 10 ng/mL human IL-15 (R&D Systems)
and the following individual conditions for FIG. 4: • 1. DMSO vehicle control • 2. […] 300 nM GPR174 inhibitor Compound #10 • 4.
On days 4 and 7 (FIG. 4) or days 3, 5, and 7 (FIG. 5), cultures were washed and seeded at 0.5 cells million per well with the same GPR174 and A2A inhibitor conditions, and with 10 ng/mL IL-7 and 10 ng/mL IL-15.
After 18 hours of culture, supernatants were harvested and analyzed for IL-2 (MesoScale Discovery).

human CD8 T cells [8] = assay: Example 2: flow cytometry phenotype clusters (FlowSOM) of expanded human CD8 T cells; assay type: cell-based; settings: 10-day culture; relative to vehicle control
Experimental: (§6) Purified human CD8 T cells were cultured in 24-well plates according to the following conditions per well: • 1 mL X-VIVO™ 15 media (Lonza) • 1 million human CD8 T cells • 2 million Human T-Activator CD3/CD28 Dynabeads® (ThermoFisher)
(§7) and the following individual conditions: • 1. DMSO vehicle control • 2. […] 300 nM GPR174 inhibitor Compound #10 • 4.
(§8) On days 4 and 7, cultures were washed and seeded at 0.5 million cells per well with the same GPR174 and A2A inhibitor conditions, and with 100 U/mL human IL-2.
In addition to restimulation, expanded T cells were characterized by flow cytometry to evaluate expression of CCR7, CD39, CD69, TIGIT, CD45RA, LAG3, T-BET. The following detection reagents were used: anti-CD8 BV510, anti-CCR7 PE-Cy7, anti-CD39 BV605, anti-CD69 BV421, anti-TIGIT eFluor450, anti-CD45RA BV750, anti-LAG3 APC-Cy7, anti-T-BET PE-dazzle594 (all from Biolegend, Invitrogen, or BD Biosciences), and LIVE/DEAD™ Fixable Green Dead Cell Stain (ThermoFisher).
Data was collected with a Cytek Northern Lights flow cytometer, and was analyzed in FlowJo, in which automated clustering was performed on a concatenated file (containing all 4 culture conditions) with the FlowSOM plugin to generate 16 clusters. The abundance of each cluster in each cell sample was exported using the Cluster Explorer plugin.

OT-I mouse CD8 T cells = assay: Example 1: OT-I CD8 T cell 10-day expansion with inhibitors, IL-2 after restimulation with EG7 cells; assay type: cell-based; settings: 10-day expansion with IL-7+IL-15; 300 nM Compound #10, 100 nM ZM-241385; restimulated with EG7 cells without inhibitors, 6 hours
Experimental: Purified OT-I mouse CD8 T cells (StemCell mouse CD8 T cell purification kit) were cultured in 24-well plates with C57BL/6 mouse splenocytes (pre-treated with mitomycin C to prevent growth) and pOVA according to the following condition per well: • 2 mL RP10 media (RPMI, 10% fetal calf serum, 6 mM L-Glutamine, 12.5 mM HEPES, 50 μM 2-mercaptoethanol, Penicillin, Streptomycin) • 0.2 million OT-I CD8 T cells • 1.4 million mitomycin C treated splenocytes • 100 nM pOVA
and the following individual conditions: • 1. DMSO vehicle control • 2. 300 nM GPR174 inhibitor Compound #10 • 3.
On day 3, cultures were split 1:4 with new media, the inhibitors were added back to original conditions, and mouse IL-7 and mouse IL-15 were added to 10 ng/mL. On days 5 and 8, cells were washed once, counted, and replated at 0.5 million per well with IL-7 and IL-15 and the original inhibitor conditions. On day 10, cells were counted, washed twice with 12 mL RP10, and restimulated in quadruplicate with EG7 cells (H-2 K^b thymoma expressing OVA) in 96-well round bottom plates according to the following conditions: • 0.2 mL RP10; • 0.1 million OT-I T cells from each T cell expansion condition; and • 0.5 million EG7 cells.
Supernatants were collected after 6 hours and assayed for IL-2 levels (MesoScale Discovery platform).

human CD8 T cells [9] = assay: Example 2: human CD8 T cell 10-day expansion with IL-2 and inhibitors, IL-2 after CD3/CD28 restimulation; assay type: cell-based; settings: 300 nM Compound #10, 100 nM ZM-241385, CD3/CD28 bead restimulation 7 hours
Experimental: as §6, §7, §8
After 7 hours of culture, supernatants were harvested and analyzed for IL-2 (MesoScale Discovery).

| Compound | IL-2 production from 8-day OT-I cultures, fold vs vehicle control ([1]; day 8 restimulation with EG7 cells) | IL-2 production from 10-day OT-I cultures, fold over vehicle control ([1]; day 10 restimulation with EG7 cells) | Fold-change in IL-2 production relative to Vehicle control ([2]; Idelalisib (agent together with 1 μM idelalisib)) | Fold-change in IL-2 production relative to Vehicle control ([2]; column Vehicle (without idelalisib), 0.5 μM doramapimod, 500 μM Rp-8-Br-cAMPS) | IL-2 production following restimulation, fold increase vs vehicle (FIG. 6) (human CD8 T cells [3]) | T cell growth during the 10-day culture relative to vehicle-treated cells (FIG. 8) (human CD8 T cells [4]) | fold-increase in T cell number during the 10-day expansion (FIG. 7) (human CD8 T cells [4]; vehicle and media controls approximately 50-fold) | downregulation of CTLA-4 [5] | increase in cells expressing both CD62L and TCF1/TCF7 relative to vehicle control [5] | percentage of OT-I T cells expressing both CD39 and CD69 ([5]; vehicle 22%) | IL-2 production following restimulation, fold above vehicle control (FIG. 8) (human CD8 T cells [6]; 10 μM HJC-0197, 5 μM ESI-09) | IL-2 production following restimulation, fold vs vehicle (FIG. 7) (human CD8 T cells [6]; GPR174+A2A inhibitors, overnight restimulation) | tumor growth / tumor volume after transfer of precultured OT-1 T cells (EG7 tumors; 2 million OT-1 T cells expanded 10 days with 0.2 μM doramapimod and/or 500 μM Rp-8-Br-cAMPS, retro-orbital, relative to vehicle control cells) | survival of tumor-bearing mice (EG7 tumors; OT-1 T cells precultured with inhibitor(s), relative to vehicle group) | IL-2 production following restimulation, fold vs vehicle control (FIG. 4) (human CD8 T cells [7]) | IL-2 production following restimulation, fold vs vehicle (FIG. 5) (human CD8 T cells [7]) | IL-2 production following restimulation, effect in the presence of Rp-8-Br-cAMPS (FIG. 6) (human CD8 T cells [3]; 300 nM Compound #10 added to 500 μM Rp-8-Br-cAMPS) | T cell phenotype clusters enriched or reduced (CD39, CD69, TIGIT, T-BET, LAG3, CCR7, CD45RA) (human CD8 T cells [8]) | IL-2 production following restimulation, fold above Vehicle (OT-I mouse CD8 T cells) | IL-2 production upon restimulation, fold increase vs vehicle (human CD8 T cells [9]) |
| --- | --- | --- | --- | --- | --- | --- | --- | --- | --- | --- | --- | --- | --- | --- | --- | --- | --- | --- | --- | --- |
| Nc1ncnc2c1nc(Br)n2[C@@H]1O[C@@H]2COP([O-])(=S)O[C@H]2[C@H]1O.[Na+] (single isomer, unassigned) [Rp-8-Br-cAMPS, 8-Br-cAMPS, Rp-isomer] | 5.3 fold | 18 fold | 89.9 | 1.6 | 3.7 fold | ~2 fold | 170 fold | particularly effective at downregulating CTLA-4 | smaller increases | smaller reductions | 2 fold | 3.6 fold | significantly halted and delayed tumor growth | intermediate survival times |  |  |  |  |  |  |
| CC1CCN(c2cc(N3CCN(S(=O)(=O)c4ccccc4)CC3)c([N+](=O)[O-])cc2F)CC1 [Compound 10] |  |  |  |  | negligible effect |  |  |  |  |  |  |  |  |  | 3 fold | approximately 1.3 fold | did not enhance IL-2 production | displayed this same trend, albeit to a lesser degree | 1.8 fold | 1.7 fold |
| Nc1nc(NCCc2ccc(O)cc2)nc2nc(-c3ccco3)nn12 [ZM-241385, ZM 241385] |  |  |  |  | negligible effect |  |  |  |  |  |  |  |  |  | negligible | approximately 1.3 fold |  | relatively unchanged |  | did not alter IL-2 production |
